Laboratory results reported in patent US20110071158A1, “NEW COMPOUNDS” (BOEHRINGER INGELHEIM INTERNATIONAL GMBH, priority 2009, published 2011).

Molecular target: T1, PTK2 enzyme (Homo sapiens, UniProt Q05397)
T1 construct: purchased Invitrogen PV3832
Assay: PTK2 enzyme test, Assay 1 (DELFIA, poly-Glu-Tyr substrate, antibody PT60)
Format: biochemical
Settings: Assay 1 (values without *); 1 h pre-incubation, 2% DMSO
Method: This test uses active PTK2 enzyme (Invitrogen Code PV3832) and poly-Glu-Tyr (4:1, Sigma P-0275) as the kinase substrate. The kinase activity is detected through the phosphorylation of the substrate in a DELFIA™ assay. The phosphorylated substrate is detected with the europium-labelled phosphotyrosine antibody PT60 (Perkin Elmer, No.: AD00400).
In order to determine concentration-activity curves with PTK2-inhibitors the compounds are serially diluted in 10% DMSO/H2O and 10 μL of each dilution are placed in each well of a 96-well microtitre plate (clear plate with a U-shaped base, Greiner No. 650101) (the inhibitors are tested in duplicates) and mixed with 10 μL/well of PTK2 kinase (0.01 μg/well). PTK2 kinase has been correspondingly diluted beforehand with kinase dilution buffer (20 mM TRIS/HCl pH 7.5, 0.1 mM EDTA, 0.1 mM EGTA, 0.286 mM sodium orthovanadate, 10% glycerol with the addition of freshly prepared BSA (fraction V, 1 mg/mL) and DTT (1 mM)). The test compound and the PTK2 kinase are pre-incubated for 1 h at RT and shaken at 500 revolutions per min. The reaction is started by the addition of 10 μL/well poly (Glu,Tyr) substrate (25 μg/well poly (Glu, Tyr), 0.05 μg/well biotinylated poly (Glu,Tyr) dissolved in 250 mM TRIS/HCl pH 7.5, 9 mM DTT)—the final concentration of DMSO is 2%. Then 20 μL of ATP Mix (30 mM TRIS/HCl pH 7.5, 0.02% Brij, 0.2 mM sodium orthovanadate, 10 mM magnesium acetate, 0.1 mM EGTA, 1× phosphatase inhibitor cocktail 1 (Sigma, No.: P2850), 50 μM ATP (Sigma, No.: A3377; 15 mM stock solution)) are added. After 1 h of kinase reaction (the plates are shaken at 500 rpm), the reaction is stopped by the addition of 12 μL/well 100 mM EDTA, pH 8.0 and shaken for a further 5 min at RT (500 rpm). 55 μL of the reaction mixture are transferred into a streptavidin plate (Strepta Well High Bind (transparent, 96-well) made by Roche, No.: 11989685001) and incubated for 1 h at RT (shaking at 500 rpm). Then the microtitre plate is washed three times with 200 μL/well D-PBS (Invitrogen, No. 14190). 100 μL of a solution containing DELFIA Eu-N1 Anti-Phosphotyrosine PT60 antibody (Perkin Elmer, No.: AD0040, diluted 1:2000 in DELFIA test buffer (Perkin Elmer, No.: 1244-111)) is then added and the mixture is incubated for 1 h at RT (shaking at 500 rpm). Then the plate is washed three times with 200 μL/well DELFIA washing buffer (Perkin Elmer, No.: 1244-114), 200 μL/well strengthening solution (Perkin Elmer, No.: 1244-105) are added and the mixture is incubated for 10 min at RT (shaking at 300 rpm).
The time-delayed europium fluorescence is then measured in a microtitre plate reader (VICTOR^3, Perkin Elmer). […] Wells that contain test buffer instead of enzyme are used as a control of the background kinase activity.
The IC50 values are determined from analyses of the concentration activity by iterative calculation with the aid of a sigmoid curve analysis algorithm (FIFTY, based on Graph PAD Prism Version 3.03) with a variable Hill coefficient.

T1 sequence (Q05397 whole entry): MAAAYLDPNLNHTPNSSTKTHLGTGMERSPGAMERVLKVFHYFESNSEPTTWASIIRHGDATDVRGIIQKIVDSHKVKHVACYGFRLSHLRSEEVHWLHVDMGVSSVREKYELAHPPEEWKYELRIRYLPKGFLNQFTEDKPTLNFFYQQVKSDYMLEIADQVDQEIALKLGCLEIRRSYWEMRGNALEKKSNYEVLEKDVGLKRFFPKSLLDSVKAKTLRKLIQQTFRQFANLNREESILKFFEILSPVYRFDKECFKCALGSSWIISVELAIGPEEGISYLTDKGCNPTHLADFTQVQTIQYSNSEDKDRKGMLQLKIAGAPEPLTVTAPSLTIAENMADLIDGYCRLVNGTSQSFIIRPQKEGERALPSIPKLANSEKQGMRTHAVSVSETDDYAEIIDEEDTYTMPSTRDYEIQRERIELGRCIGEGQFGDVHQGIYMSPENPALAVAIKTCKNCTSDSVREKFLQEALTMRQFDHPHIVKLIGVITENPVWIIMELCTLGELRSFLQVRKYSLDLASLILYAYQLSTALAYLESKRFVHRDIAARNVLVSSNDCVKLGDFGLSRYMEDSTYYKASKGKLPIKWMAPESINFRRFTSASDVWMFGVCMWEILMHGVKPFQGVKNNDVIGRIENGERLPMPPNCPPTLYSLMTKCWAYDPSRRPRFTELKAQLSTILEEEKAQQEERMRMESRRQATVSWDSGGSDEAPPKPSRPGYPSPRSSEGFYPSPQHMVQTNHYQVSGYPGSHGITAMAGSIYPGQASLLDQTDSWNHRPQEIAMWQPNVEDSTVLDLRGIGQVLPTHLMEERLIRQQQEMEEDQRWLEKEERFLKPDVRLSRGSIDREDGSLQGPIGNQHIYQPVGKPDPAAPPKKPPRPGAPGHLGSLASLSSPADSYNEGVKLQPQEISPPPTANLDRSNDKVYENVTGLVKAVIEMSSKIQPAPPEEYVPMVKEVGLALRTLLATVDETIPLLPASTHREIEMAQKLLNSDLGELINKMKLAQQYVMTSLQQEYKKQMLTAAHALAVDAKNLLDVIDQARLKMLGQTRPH

Compound | IC50 [nM]
CCC(=O)N[C@@H]1CCCC[C@H]1Nc1nc(Nc2ccc(C(=O)NC3CCN(C)CC3)cc2OC)ncc1C(F)(F)F [Example I-1, 3-methoxy-N-(1-methyl-piperidin-4-yl)-4-[4-((1R,2R)-2-propionylamino-cyclohexylamino)-5-trifluoromethyl-pyrimidin-2-ylamino]-benzamide] | 1
COc1ccccc1Nc1ncc(Cl)c(N[C@@H]2CCCC[C@H]2NC(C)=O)n1 [Example I-4, N-{(1R,2R)-2-[5-chloro-2-(2-methoxy-phenylamino)-pyrimidin-4-ylamino]-cyclohexyl}-acetamide] | 9
CNC(=O)c1ccc(Nc2ncc(C(F)(F)F)c(N[C@@H]3CCCC[C@H]3NC(C)=O)n2)c(OC)c1 [Example I-6] | 4
CCNC(=O)c1ccc(Nc2ncc(C(F)(F)F)c(N[C@@H]3CCCC[C@H]3NC(C)=O)n2)c(OC)c1 [Example I-7] | 3
CCN1CCC(NC(=O)c2ccc(Nc3ncc(C(F)(F)F)c(N[C@@H]4CCCC[C@H]4NC(C)=O)n3)c(OC)c2)CC1 [Example I-8] | 2
COc1cc(C(=O)NC2CCCN(C)C2)ccc1Nc1ncc(C(F)(F)F)c(N[C@@H]2CCCC[C@H]2NC(C)=O)n1 (stereo partly drawn) [Example I-10] | 3
COc1cc(C(=O)NC2CCN(C)CC2)ccc1Nc1ncc(C(F)(F)F)c(N[C@@H]2CCCC[C@H]2NC(C)=O)n1 [Example I-11] | 2
COc1cc(C(=O)N(C)C)ccc1Nc1ncc(C(F)(F)F)c(N[C@@H]2CCCC[C@H]2NC(C)=O)n1 [Example I-13] | 18
CCNC(=O)N[C@@H]1CCCC[C@H]1Nc1nc(Nc2ccc(C(=O)NC3CCN(C)CC3)cc2OC)ncc1C(F)(F)F [Example I-15] | 3
COc1cc(C(=O)NC2CCN(C)CC2)ccc1Nc1ncc(C(F)(F)F)c(N[C@@H]2CCCC[C@H]2NC(=O)C(C)(C)C)n1 [Example I-16] | 4
COc1cc(C(=O)NC2CCN(C)CC2)ccc1Nc1ncc(C(F)(F)F)c(N[C@@H]2CCCC[C@H]2NC(=O)CN(C)C)n1 [Example I-17] | 15
CCCC(=O)N[C@@H]1CCCC[C@H]1Nc1nc(Nc2ccc(C(=O)NC3CCN(C)CC3)cc2OC)ncc1C(F)(F)F [Example I-19] | 4
COc1cc(C(=O)NC2CCN(C)CC2)ccc1Nc1ncc(C(F)(F)F)c(N[C@@H]2CCCC[C@H]2NC(=O)C2CC2)n1 [Example I-20] | 1
COc1cc(C(=O)NC2CCN(C)CC2)ccc1Nc1ncc(C(F)(F)F)c(N[C@@H]2CCCC[C@H]2NC(=O)C2CCCC2)n1 [Example I-22] | 15
COc1cc(C(=O)NC2CCN(C)CC2)ccc1Nc1ncc(C(F)(F)F)c(N[C@@H]2CCCC[C@H]2NC(=O)C2CCC2)n1 [Example I-23] | 3
CCN(CC)C(=O)CN[C@@H]1CCCC[C@H]1Nc1nc(Nc2cc(F)c(C(=O)NC3CCN(C)CC3)cc2OC)ncc1C(F)(F)F [Example I-25] | 24
COc1cc(C(=O)NC2CCN(C)CC2)ccc1Nc1ncc(C(F)(F)F)c(N[C@@H]2CCCC[C@H]2NCC(=O)N(C)OC)n1 [Example I-26] | 23
COc1cc(N2CCN(C)CC2)ccc1Nc1ncc(C(F)(F)F)c(N[C@@H]2CCCC[C@H]2NC(C)=O)n1 [Example I-29] | 1
COc1cc(N2CCN(C)CC2)ccc1Nc1ncc(C(F)(F)F)c(N[C@@H]2CCCC[C@H]2NC(=O)C(C)C)n1 [Example I-30] | 5
COCC(=O)N[C@@H]1CCCC[C@H]1Nc1nc(Nc2ccc(N3CCN(C)CC3)cc2OC)ncc1C(F)(F)F [Example I-31] | 5
COc1cc(N2CCN(C)CC2)ccc1Nc1ncc(C(F)(F)F)c(N[C@@H]2CCCC[C@H]2NC(=O)CC(C)C)n1 [Example I-33] | 70
COc1cc(C(=O)NC2CCN(C)CC2)ccc1Nc1ncc(C(F)(F)F)c(N[C@@H]2CCCC[C@H]2N(C)C)n1 [Example I-34] | 71
COc1cc(C(=O)NC2CCN(C)CC2)ccc1Nc1ncc(C(F)(F)F)c(N[C@H]2CCCC[C@@H]2NC(C)=O)n1 [Example I-35] | 81
CCN1CCC(NC(=O)c2ccc(Nc3ncc(C(F)(F)F)c(N[C@H]4CCCC[C@@H]4NC(C)=O)n3)c(OC)c2)CC1 [Example I-38] | 400
COc1cc(C(=O)NC2CCCN(C)C2)ccc1Nc1ncc(C(F)(F)F)c(N[C@@H]2CCCC[C@H]2NC(C)=O)n1 (stereo partly drawn) [Example I-41] | 2
COc1cc(C(=O)NC2CCOCC2)ccc1Nc1ncc(Br)c(N[C@@H]2CCCC[C@H]2NC(C)=O)n1 [Example I-44] | 2
CCNC(=O)c1ccc(Nc2ncc(Br)c(N[C@@H]3CCCC[C@H]3NC(C)=O)n2)c(OC)c1 [Example I-48] | 2

The remaining compounds from weak to strong by IC50, led by results:

IC50 [nM] | Compound
400 | COc1cc(C(=O)NC2CCOCC2)ccc1Nc1ncc(C(F)(F)F)c(N[C@H]2CCCC[C@@H]2NC(C)=O)n1 [Example I-36]
400 | COc1cc(C(=O)NC2CCCN(C)C2)ccc1Nc1ncc(C(F)(F)F)c(N[C@H]2CCCC[C@@H]2NC(C)=O)n1 (stereo partly drawn) [Example I-37]
46 | COc1cc(C(=O)NC2CCN(C)CC2)ccc1Nc1ncc(C(F)(F)F)c(N[C@@H]2CCCC[C@H]2NC(=O)NC(C)(C)C)n1 [Example I-18]
32 | COc1cc(C(=O)NC2CCN(C)CC2)ccc1Nc1ncc(C(F)(F)F)c(N[C@@H]2CCCC[C@H]2NC(=O)CC(C)C)n1 [Example I-14]
24 | CCN(CC)C(=O)CN[C@@H]1CCCC[C@H]1Nc1nc(Nc2ccc(C(=O)NC3CCN(C)CC3)cc2OC)ncc1C(F)(F)F [Example I-24]
21 | COc1cc(N2CCN(C)CC2)ccc1Nc1ncc(C(F)(F)F)c(N[C@@H]2CCCC[C@H]2NC(=O)CN(C)C)n1 [Example I-32]
19 | COc1cc(C(=O)NC2CCN(C)CC2)ccc1Nc1ncc(C(F)(F)F)c(N[C@@H]2CCCC[C@@H]2NC(C)=O)n1 [Example I-5]
10 | COCC(=O)N(C)[C@@H]1CCCC[C@H]1Nc1nc(Nc2ccc(C(=O)NC3CCN(C)CC3)cc2OC)ncc1C(F)(F)F [Example I-3, 3-methoxy-4-(4-{(1R,2R)-2-[(2-methoxy-acetyl)-methyl-amino]-cyclohexylamino}-5-trifluoromethyl-pyrimidin-2-ylamino)-N-(1-methyl-piperidin-4-yl)-benzamide]
10 | COc1cc(C(=O)N(C)C)ccc1Nc1ncc(Br)c(N[C@@H]2CCCC[C@H]2NC(C)=O)n1 [Example I-49]
6 | COc1cc(C(=O)NC2CCN(C)CC2)c(F)cc1Nc1ncc(C(F)(F)F)c(N[C@@H]2CCCC[C@H]2NCC(=O)N(C)OC)n1 [Example I-27]
4 | COCC(=O)N[C@@H]1CCCC[C@H]1Nc1nc(Nc2ccc(C(=O)NC3CCN(C)CC3)cc2OC)ncc1C(F)(F)F [Example I-21]
3 | COc1cc(C(=O)NC(C)C)ccc1Nc1ncc(C(F)(F)F)c(N[C@@H]2CCCC[C@H]2NC(C)=O)n1 [Example I-2, 4-[4-(2-acetylamino-cyclohexylamino)-5-trifluoromethyl-pyrimidin-2-ylamino]-N-isopropyl-3-methoxy-benzamide]
3 | COc1cc(C(=O)NC2CCN(C)CC2)ccc1Nc1ncc(C(F)(F)F)c(N[C@@H]2CCCC[C@H]2NC(=O)C(C)C)n1 [Example I-12]
2 | CNC(=O)c1ccc(Nc2ncc(C(F)(F)F)c(N[C@@H]3CCCC[C@H]3NC(C)=O)n2)c(OC)c1 [Example I-39]
2 | CNC(=O)c1ccc(Nc2ncc(Br)c(N[C@@H]3CCCC[C@H]3NC(C)=O)n2)c(OC)c1 [Example I-46]
1 | COc1cc(C(=O)NC2CCCN(C)C2)ccc1Nc1ncc(Br)c(N[C@@H]2CCCC[C@H]2NC(C)=O)n1 (stereo partly drawn) [Example I-45]
1 | COc1cc(C(=O)NC2CCN(C)CC2)ccc1Nc1ncc(Br)c(N[C@@H]2CCCC[C@H]2NC(C)=O)n1 [Example I-50]
0.96 | COc1cc(C(=O)NCCN(C)C)ccc1Nc1ncc(Br)c(N[C@@H]2CCCC[C@H]2NC(C)=O)n1 [Example I-47]
